Assay results from US9828379B2 (priority 2013, dated 2017).

Key:
Test in all cases: In vitro competitive activity-based protein profiling (Table 2, % inhibition at 1 μM)
Assay type in all cases: biochemical
ABHD6 = biological target: T1, ABHD6 (Mus musculus, UniProt Q8R2Y0); conditions: read-out: % Inhibition at 1 μM ABHD6
T1 sequence (Q8R2Y0 1-336): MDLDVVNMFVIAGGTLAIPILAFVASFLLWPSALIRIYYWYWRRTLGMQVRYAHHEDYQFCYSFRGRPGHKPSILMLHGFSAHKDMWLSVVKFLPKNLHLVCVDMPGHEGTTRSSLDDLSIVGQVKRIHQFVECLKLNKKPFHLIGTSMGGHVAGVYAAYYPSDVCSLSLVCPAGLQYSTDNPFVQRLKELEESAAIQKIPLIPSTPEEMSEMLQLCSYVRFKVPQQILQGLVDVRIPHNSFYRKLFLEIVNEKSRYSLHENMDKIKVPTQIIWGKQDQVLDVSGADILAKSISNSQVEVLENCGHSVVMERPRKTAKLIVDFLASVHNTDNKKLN
Procedure: (§1) After 30 min, FP—Rh (1.0 μL, 50 μM in DMSO) was added and the mixture was incubated for another 30 min at 37° C. Reactions were quenched with SDS loading buffer (50 μL-4×) and run on SDS-PAGE. Following gel imaging, serine hydrolase activity was determined by measuring fluorescent intensity of gel bands corresponding to MAGL, ABHD6 and FAAH using ImageJ 1.43 u software.
(§2) hMAGL was expressed in HEK293T cells according to previously reported methods (see Niphakis, Long, and Blankman, J. L., et al. (2007) Chem. Biol. 14:1347-1356). Cell lysates were diluted with mock proteomes for use in competitive ABPP experiments.

FAAH = biological target: T2, FAAH (Mus musculus, UniProt O08914); conditions: read-out: % Inhibition at 1 μM FAAH
T2 sequence (O08914 1-579): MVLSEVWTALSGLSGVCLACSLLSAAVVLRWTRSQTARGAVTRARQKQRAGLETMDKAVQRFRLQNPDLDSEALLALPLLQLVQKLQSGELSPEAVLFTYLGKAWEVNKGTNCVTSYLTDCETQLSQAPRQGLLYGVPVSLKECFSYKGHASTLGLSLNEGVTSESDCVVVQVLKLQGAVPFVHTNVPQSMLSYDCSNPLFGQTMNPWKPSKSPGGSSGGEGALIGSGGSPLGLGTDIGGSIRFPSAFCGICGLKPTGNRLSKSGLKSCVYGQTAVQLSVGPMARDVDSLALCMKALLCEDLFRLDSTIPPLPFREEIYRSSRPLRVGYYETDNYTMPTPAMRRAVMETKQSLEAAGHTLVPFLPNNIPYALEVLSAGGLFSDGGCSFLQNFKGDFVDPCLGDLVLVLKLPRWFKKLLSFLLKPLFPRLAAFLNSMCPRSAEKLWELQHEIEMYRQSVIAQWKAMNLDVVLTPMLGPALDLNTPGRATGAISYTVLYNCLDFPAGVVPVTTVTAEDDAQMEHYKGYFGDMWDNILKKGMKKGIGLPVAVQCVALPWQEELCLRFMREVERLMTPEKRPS
Procedure: as §1, §2

MAGL = biological target: T3, MAGL (Mus musculus, UniProt O35678); conditions: read-out: % Inhibition at 1 μM MAGL
T3 sequence (O35678 1-303): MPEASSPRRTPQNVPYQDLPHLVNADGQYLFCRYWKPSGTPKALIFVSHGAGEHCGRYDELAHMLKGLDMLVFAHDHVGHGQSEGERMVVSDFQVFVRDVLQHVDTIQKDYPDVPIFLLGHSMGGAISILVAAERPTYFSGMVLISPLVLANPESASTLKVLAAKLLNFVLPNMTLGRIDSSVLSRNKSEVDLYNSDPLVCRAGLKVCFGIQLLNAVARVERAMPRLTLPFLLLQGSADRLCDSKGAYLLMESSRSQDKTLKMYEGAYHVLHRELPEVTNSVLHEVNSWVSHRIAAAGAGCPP
Procedure: After 30 min, FP—Rh (1.0 μL, 50 μM in DMSO) was added and the mixture was incubated for another 30 min at 37° C. Reactions were quenched with SDS loading buffer (50 μL-4×) and run on SDS-PAGE.
Cell lysates were diluted with mock proteomes for use in competitive ABPP experiments.

Compound	inhibition at 1 µM (ABHD6)	inhibition at 1 µM (FAAH)	inhibition at 1 µM (MAGL)
CCn1cc(CN2CC3CN(C(=O)OC(C(F)(F)F)C(F)(F)F)CC3C2)c(-c2ccc(N3CCOCC3)cc2)n1 (centres unmarked) [Example 68, 1,1,1,3,3,3-Hexafluoropropan-2-yl 5-([1-ethyl-3-[4-(morpholin-4-yl)phenyl]-1H-pyrazol-4-yl]methyl)-octahydropyrrolo[3,4-c]pyrrole-2-carboxylate]	< 25%	< 25%	> 75%
O=C(ON1C(=O)CCC1=O)N1CC2CN(Cc3ccc(C(=O)N4CCC4)cc3Cl)CC2C1 (centres unmarked) [Example 165, 2,5-dioxopyrrolidin-1-yl5-(4-(azetidine-1-carbonyl)-2-chlorobenzyl)-hexahydropyrrolo[3,4-c]pyrrole-2(1H)-carboxylate]	< 25%	< 25%	25 to 75%
O=C(ON1C(=O)CCC1=O)N1CC2CN(Cc3ccc(C(=O)N4CCCCC4)cc3Cl)CC2C1 (centres unmarked) [Example 161, 2,5-dioxopyrrolidin-1-yl 5-([2-chloro-4-[(piperidin-1-yl)carbonyl]phenyl]methyl)-octahydropyrrolo[3,4-c]pyrrole-2-carboxylate]	25 to 75%	25 to 75%	25 to 75%
O=C(ON1C(=O)CCC1=O)N1CC2CN(Cc3ccc(Cl)cc3N3CCCC3)CC2C1 (centres unmarked) [Example 94, 2,5-Dioxopyrrolidin-1-yl 5-[[4-chloro-2-(pyrrolidin-1-yl)phenyl]methyl]-octahydropyrrolo[3,4-c]pyrrole-2-carboxylate]	< 25%	25 to 75%	25 to 75%
O=C(OC(C(F)(F)F)C(F)(F)F)N1CC2CN(C(c3ccc(Cl)cc3)c3ccc(Cl)cc3)CC2C1 (centres unmarked) [Example 8, 1,1,1,3,3,3-Hexafluoropropan-2-yl 5-[bis(4-chlorophenyl)methyl]-octahydropyrrolo[3,4-c]pyrrole-2-carboxylate]	25 to 75%	< 25%	25 to 75%
O=C(ON1C(=O)CCC1=O)N1CC2CN(Cc3ccc(C(=O)N4CCC4)cc3F)CC2C1 (centres unmarked) [Example 168, 2,5-dioxopyrrolidin-1-yl5-(4-(azetidine-1-carbonyl)-2-fluorobenzyl)-hexahydropyrrolo[3,4-c]pyrrole-2(1H)-carboxylate]	< 25%	–	–
CC(C)c1cc(CN2CC3CN(C(=O)ON4C(=O)CCC4=O)CC3C2)n(C2CCOCC2)n1 (centres unmarked) [Example 124, 2,5-Dioxopyrrolidin-1-yl 5-[[1-(oxan-4-yl)-3-(propan-2-yl)-1H-pyrazol-5-yl]methyl]-octahydropyrrolo[3,4-c]pyrrole-2-carboxylate]	< 25%	< 25%	25 to 75%
O=C(ON1C(=O)CCC1=O)N1CC2CN(Cc3ccc(C(=O)N4CCCC4)cc3F)CC2C1 (centres unmarked) [Example 167, 2,5-dioxopyrrolidin-1-yl5-(2-fluoro-4-(pyrrolidine-1-carbonyl)benzyl)-hexahydropyrrolo[3,4-c]pyrrole-2(1H)-carboxylate]	< 25%	–	–
O=C(ON1C(=O)CCC1=O)N1CC2CN(Cc3ccc(Cl)cc3N3CCOCC3)CC2C1 (centres unmarked) [Example 93, 2,5-Dioxopyrrolidin-1-yl 5-[[4-chloro-2-(morpholin-4-yl)phenyl]methyl]-octahydropyrrolo[3,4-c]pyrrole-2-carboxylate]	25 to 75%	< 25%	25 to 75%
CC(C)n1cc(CN2CC3CN(C(=O)ON4C(=O)CCC4=O)CC3C2)c(C2CCN(S(C)(=O)=O)CC2)n1 (centres unmarked) [Example 120, 2,5-Dioxopyrrolidin-1-yl 5-[[3-(1-methanesulfonylpiperidin-4-yl)-1-(propan-2-yl)-1H-pyrazol-4-yl]methyl]-octahydropyrrolo[3,4-c]pyrrole-2-carboxylate]	< 25%	< 25%	< 25%
CC(C)c1ccc(CN2CC3CN(C(=O)ON4C(=O)CCC4=O)CC3C2)c(N2CCCC2)c1 (centres unmarked) [Example 98, 2,5-Dioxopyrrolidin-1-yl 5-[[4-(propan-2-yl)-2-(pyrrolidin-1-yl)phenyl]methyl]-octahydropyrrolo[3,4-c]pyrrole-2-carboxylate]	< 25%	< 25%	25 to 75%
CC(=O)N1CCC(n2nc(C)cc2CN2CC3CN(C(=O)ON4C(=O)CCC4=O)CC3C2)CC1 (centres unmarked) [Example 122, 2,5-Dioxopyrrolidin-1-yl 5-[[1-(1-acetylpiperidin-4-yl)-3-methyl-1H-pyrazol-5-yl]methyl]-octahydropyrrolo[3,4-c]pyrrole-2-carboxylate]	< 25%	< 25%	< 25%
Cn1nc(-c2cccc(F)c2)cc1CN1CC2CN(C(=O)ON3C(=O)CCC3=O)CC2C1 (centres unmarked) [Example 198, 2,5-dioxopyrrolidin-1-yl 5-((3-(3-fluorophenyl)-1-methyl-1H-pyrazol-5-yl)methyl)hexahydropyrrolo[3,4-c]pyrrole-2(1H)-carboxylate]	< 25%	< 25%	< 25%
O=C(ON1C(=O)CCC1=O)N1CC2CN(Cc3ccc(C(=O)N4CCOCC4)cc3Cl)CC2C1 (centres unmarked) [Example 163, 2,5-dioxopyrrolidin-1-yl 5-(2-chloro-4-(morpholine-4-carbonyl)benzyl)-hexahydropyrrolo[3,4-c]pyrrole-2(1H)-carboxylate]	< 25%	< 25%	< 25%
CCN1CCN(c2c(C)cccc2CN2CC3CN(C(=O)ON4C(=O)CCC4=O)CC3C2)CC1 (centres unmarked) [Example 139, 2,5-dioxopyrrolidin-1-yl 5-[[2-(4-ethylpiperazin-1-yl)-3-methylphenyl]methyl]-octahydropyrrolo[3,4-c]pyrrole-2-carboxylate]	< 25%	< 25%	< 25%
Cc1cccc(CN2CC3CN(C(=O)ON4C(=O)CCC4=O)CC3C2)c1N1CCCCC1 (centres unmarked) [Example 105, 2,5-Dioxopyrrolidin-1-yl 5-[[3-methyl-2-(piperidin-1-yl)phenyl]methyl]-octahydropyrrolo[3,4-c]pyrrole-2-carboxylate]	< 25%	< 25%	25 to 75%
O=C(ON1C(=O)CCC1=O)N1CC2CN(Cc3ccc(F)cc3N3CCOCC3)CC2C1 (centres unmarked) [Example 89, 2,5-Dioxopyrrolidin-1-yl 5-[[4-fluoro-2-(morpholin-4-yl)phenyl]methyl]-octahydropyrrolo[3,4-c]pyrrole-2-carboxylate]	< 25%	< 25%	< 25%
O=C(ON1C(=O)CCC1=O)N1CC2CN(Cc3ccc(Cl)cc3N3Cc4cccnc4C3)CC2C1 (centres unmarked) [Example 107, 2,5-Dioxopyrrolidin-1-yl 5-[(4-chloro-2-[5H,6H,7H-pyrrolo[3,4-b]pyridin-6-yl]phenyl)methyl]-octahydropyrrolo[3,4-c]pyrrole-2-carboxylate]	25 to 75%	25 to 75%	25 to 75%
CC(=O)N1CCN(c2cccc(CN3CC4CN(C(=O)ON5C(=O)CCC5=O)CC4C3)c2C)CC1 (centres unmarked) [Example 143, 2,5-dioxopyrrolidin-1-yl 5-[[3-(4-acetylpiperazin-1-yl)-2-methylphenyl]methyl]-octahydropyrrolo[3,4-c]pyrrole-2-carboxylate]	< 25%	< 25%	< 25%
